Experimental data as given in EP3246013A1, “INHIBITION OF THE ADHESION OF MICROORGANISMS PATHOGENATED BY A STEARATE AND/OR SORBITAN SUCROSE IN THE COSMETIC TREATMENT OF ATOPIC DERMATITIS” (priority 2012, dated 2014).

Assays:
[1] = test system: S. aureus; assay: Ex vivo inhibition of adhesion of S. aureus on human corneocytes (D-Squame discs), crystal violet staining and image counting; type: cell-based, Staphylococcus aureus; details: for Inhibition de l'adhésion de S. aureus (%) Essai 1 / Inhibition de l'adhésion de S. aureus (%) Essai 2: human corneocytes; for Inhibition de l'adhésion de S. aureus (%) Essai 1: trial 1; for Inhibition de l'adhésion de S. aureus (%) Essai 2: trial 2
Protocol: Afin de corroborer les résultats obtenus in vitro, un test d'adhésion ex vivo sur des cornéocytes humains a été mis au point d'après la méthode réalisée chez le chien (McEwan et al., 2005).
La souche clinique de S. aureus (CIP 65-8) a été prélevée sur un patient, au sein du laboratoire de bactériologie clinique de l'hôpital de la Timone à Marseille.
La souche de S. aureus est inoculée dans 10 ml de milieu 'Nutrient Broth N° 2' (Oxoid) et incubée sous agitation à 37°C pendant 12 heures. Les bactéries sont collectées par centrifugation et le culot bactérien est remis en suspension dans un tampon phosphate PBS. La population bactérienne est ajustée approximativement à 10^6 CFU/ml avec de l'eau osmosée.
Des zones cibles sont délimitées sur chaque bras d'un volontaire humain. Pour chaque zone, les débris cutanés sont éliminés grâce à 5 « pré-strippings » successifs avec des disques Sellotape™Original (diamètre 22 mm). Les cornéocytes sont ensuite collectés sur chaque zone cible à l'aide de disques adhésifs D-Squame™ (diamètre 22 mm) et d'un applicateur de disque D-Squame réglé à la pression de 150 g/cm^2.
Les disques sont ensuite placés dans des boîtes de Pétri, de diamètre 35 mm. Les disques sont alors recouverts par 0,5 ml d'eau ou 0,5 ml de la solution de S. aureus à 10^6 CFU/ml, contenant le composé polyhydroxylé à tester, à raison de trois zones pour chacun d'entre eux.
Les composés polyhydroxylés testés avec ce protocole expérimental sont : • le xylitol, à une concentration finale de 0,5%; • le sucrose stéarate HLB 16 (sucrose monostéarate, SURFHOPE C1816,), à une concentration finale de 1%, • le sucrose laurate monoester (SURFHOPE C1216), à une concentration finale de 0,1 %, • le polysorbate 60, à une concentration finale de 0,1%, • le polysorbate 60, à une concentration finale de 1%, • le polysorbate 20, à une concentration finale de 0,1%,
Toutes les solutions sont préparées dans de l'eau et mises en contact avec S. aureus à température ambiante 45 min avant le début de l'expérience d'adhésion. Les boites sont ensuite incubées à 37°C pendant 60 min. Les disques sont alors rincés avec de l'eau osmosée, ce qui permet d'éliminer les bactéries n'ayant pas adhéré aux cornéocytes. Les bactéries ayant adhéré aux cornéocytes humains sont alors colorées par du cristal violet oxalaté pendant 10 secondes. Les disques sont enfin rincés avec de l'eau osmosée, placés sur une lame de microscope et séchés à l'air libre pendant 24 h.
Les images des bactéries adhérentes sont acquises à l'aide d'un microscope Olympus BX 53 couplé à une caméra numérique. Les images collectées sont ensuite analysées par le logiciel UTHSCSA Image Tool (Reindeer Graphics Inc.). Le nombre de bactéries par disque est calculé par une moyenne arithmétique de 10 à 12 images, ce qui correspond à la surface d'environ 100 cornéocytes. Les comparaisons entre différentes moyennes sont effectuées avec le logiciel Statgraphics Plus (Manugistics Inc.).

[2] = test system: Staphylococcus aureus; assay: In vitro inhibition of adhesion of S. aureus on a solid support (glass chamber slide), crystal violet staining and automatic counting; type: cell-based; details: for Nombre de cellules par champ: adhesion to glass slide, mean of three fields ± SD, water control 99 ± 11; for inhibition de l'adhésion (% par rapport au témoin eau): glass slide
Protocol: Le protocole suivant est mis en oeuvre : • Une préculture de S. aureus issue du laboratoire de bactériologie clinique de l'hôpital de la Timone (CIP 65-8) est réalisée dans du milieu 'Nutrient Broth N° 2' (Oxoid), pendant 12h, à 37°C; • La culture est centrifugée à 9 000 g, pendant 10 min et le culot bactérien est remis en suspension dans un tampon phosphate (PBS); • A partir de cette suspension, une dilution au 1/50 est réalisée dans une solution aqueuse ou une solution aqueuse contenant le composé polyhydroxylé à tester. Il s'agit soit du xylitol, soit du sucrostéarate HLB 16 (SURFHOPE™ C1816); • Les bactéries sont préincubées en présence du composé polyhydroxylé à tester pendant 45 min, à 37 °C; • Le mélange (100 µl) est ensuite déposé dans un puits d'une lame cytologique en verre, de surface fixe (0,8 cm^2) et délimitée par des parois, c'est-à-dire une lame adaptée à la culture cellulaire (Chamber Slide System, Labtek); • Les cultures bactériennes sont ensuite incubées à 37°C, pendant 60 min et ultérieurement rincées délicatement avec de l'eau ultra pure, ce qui permet d'éliminer les bactéries n'ayant pas adhéré à la surface du puits de la lame; • Les bactéries ayant adhéré dans chaque puits sont par la suite colorées par le cristal violet pendant 10 secondes, puis rincées et séchées pendant 12h, à 25°C; • Les bactéries sont enfin observées à l'aide d'un microscope optique, par grossissement x 1000, en immersion, les champs étant parfaitement homogènes; • Un comptage automatique des bactéries dans chaque puits est finalement réalisé à l'aide d'un logiciel approprié.
Selon ce protocole, l'effet des composés polyhydroxylés a été analysé pour l'activité d'inhibition de l'adhésion de S. aureus sur le support solide. Le xylitol à une concentration finale de 0,5% et le sucrostéarate HLB 16 (sucrose monostéarate, SURFHOPE C18-C16) à une concentration finale de 1% ont été testés. Tableau 1 : Effets du xylitol (0,5%) et du sucrostéarate HLB 16 (1%) sur l'adhésion de S. aureus à la surface des lames de verre. Les résultats correspondent à une moyenne du comptage de trois champs, qui est présentée avec l'écart type correspondant.

Compound	effet sur l'adhésion de S. aureus sur les cornéocytes ([1]; final concentration 0,1%)	Inhibition de l'adhésion de S. aureus (%) Essai 1 ([1]; final concentration 0,1%)	activité inhibitrice (adhésion de S. aureus sur les cornéocytes) ([1]; final concentration 1%) [%]	Inhibition de l'adhésion de S. aureus (%) Essai 1 ([1]; final concentration 1%)	further results
monolaurate de sorbitan ethoxylé [Polysorbate 20]	résultats très satisfaisants	57%	–	–	–
sucrose laurate monoester [reference compound]	augmentation significative de l'adhésion	-22.8%	–	–	–
OC[C@@H](O)[C@H](O)[C@@H](O)CO [Xylitol, xylitol, reference compound]	–	–	–	–	effet inhibiteur sur l'adhésion de S. aureus sur les cornéocytes ([1]; final concentration 0,5%): ~20%; Inhibition de l'adhésion de S. aureus (%) Essai 1 ([1]; final concentration 0,5%): 21,0%; Inhibition de l'adhésion de S. aureus (%) Essai 2 ([1]; final concentration 0,5%): 20,2%; Nombre de cellules par champ ([2]; final concentration 0,5%): 91 ± 6; inhibition de l'adhésion (% par rapport au témoin eau) ([2]; final concentration 0,5%): 8%
monostéarate de sorbitan polyoxyethylène 20 [Polysorbate 60]	résultats très satisfaisants	39,8%	≥ 50	54%	–
sucrose monostéarate [Sucrostéarate HLB 16]	–	–	≥ 50	57,0%	Inhibition de l'adhésion de S. aureus (%) Essai 2 ([1]; final concentration 1%): 49,6%; Nombre de cellules par champ ([2]; final concentration 1%): 12 ± 1; inhibition de l'adhésion (% par rapport au témoin eau) ([2]; final concentration 1%): 88%; inhibition de l'adhésion de S. aureus à la surface des lames de verre ([2]; text conclusion in words, 1%): forte inhibition
